According to patent US12258424B2, “Polypeptides and compositions comprising the same” (priority 2020, dated 2025):
Residues, ends and D or L forms follow the SMILES beside them.

Experiments:
[1] = tested on: IFNγ, PD-L1 and IL-6 in CT26 tumors; assay: ELISA of IFNγ, PD-L1 and IL-6 in harvested CT26 tumors; format: in vivo, mouse
Excerpt: Animal Study. The animal protocol was approved by the University of Missouri-Kansas City, Institutional Animal Care and Use Committee (IACUC). Five-week old male and female Balb/c mice were purchased from Charles Rivers Laboratories (Wilmington, Mass.) and housed in a temperature and humidity controlled room on a 12-hour light-dark cycle. Approximately 5×10^5 CT26 cells were subcutaneously injected into the right flank. The mice were randomly divided into five different groups (10 mice/group, 50% female, 50% male). The mice were intraperitoneally injected with 2 mg/kg peptide daily when the tumor size reached 50-100 mm^3. The anti-mouse PD-L1 antibody (10F.9G2, BioXcell) was administrated as a positive control at a dose of 10 mg/kg every two days. The tumor size was assessed with a caliper and calculated with the formula 0.5×length×width^2. ELISA kits of PD-L1 (Cat #DY1019-05), IFNγ (Cat #DY485-05), and IL-6 (Cat #DY406-05) were used to measure the expressions of PD-L1, IFNγ, and IL-6, respectively, in tumors as per the company's instructions (R & D Systems, Minneapolis, MN).

[2] = tested on: Jurkat T cells co-cultured with DU-145 cancer cells; assay: Jurkat T cell proliferation in co-culture with DU-145 cells (CellTiter-Glo); format: cell-based, human; conditions: peptide 5 μM, 24 hours
Experimental: Proliferation and Apoptosis Assays. […] Briefly, 3×10^4 Jurkat T cells were cultured alone or co-cultured with 1.5×10^5 DU-145 cancer cells in a 24-well plate for the proliferation assay. For the apoptosis assay, 6×10^4 Jurkat T cells were cultured alone or co-cultured with 3×10^5 DU-145 cancer cells in a 6-well plate. After incubation with the anti-PD-L1 peptides (5 μM) or anti-PD-L1 antibody (1 μM) for 24 hours, Jurkat T cells were harvested from the supernatant. Proliferation of Jurkat cells was determined using the CellTiter-Glo luminescent cell viability assay (Promega, WI), and apoptosis of the cells were determined using the Dead Cell Apoptosis Kit with Annexin V Alexa Fluor® 488 and Propidium Iodide (Thermo-Fisher Scientific, Pittsburgh, PA) as we described before^21.

[3] = tested on: CD8+ T cells in CT26 tumor tissues; assay: IHC staining of CD8+ T cells in CT26 tumor tissues; format: in vivo, mouse
Experimental: Immunohistochemistry (IHC) Staining. Tumor tissues were fixed in 10% formalin, embedded in paraffin, sectioned, and mounted on glass slides by Truman Medical Centers Anatomic Pathology Core (Kansas City, MO). The slides were heated in Tris buffer (pH 9.0) for 45 min to recover antigen. After deparaffinization and rehydration, the sections were stained with the anti-mouse CD8 alpha antibody (Abcam, ab209775) overnight at 4° C. The slides were incubated with a biotinylated goat anti-rabbit secondary antibody, followed by the DAB chromogen mixture. Four sections (2 male and 2 female) were imaged in each group. For each section, 3 regions were randomly selected for imaging.

DU145 cancer cell = format: cell-based, human
Experimental: (§1) Ninety-six-well plates were coated with 100 ng of PD-L1 protein (G&P Biosciences, human PD-L1 ECD, cat #FCL0784B. mouse PD-L1, cat #FCL3502B) and later blocked with 2% BSA for 2 hours at room temperature. Various concentrations of peptides were loaded into the wells and incubated for 1 hour at room temperature. […] Streptavidin-HRP (R & D systems) and chromogenic substrate were added into the wells. OD450 was then recorded and referenced to OD540.
The blocking efficiency of the anti-PD-L1 peptides at 10 μM (FIG. 2c). […] The IC50 of each peptide was also determined using recombinant human PD-L1 protein and DU-145 cancer cells.

[4] = molecular target: T1, recombinant human PD-L1 ECD protein (Homo sapiens, UniProt Q9NZQ7); assay: SPR binding kinetics and affinity to immobilized human PD-L1; conditions: read-out: Ka
T1 construct: against the recombinant human PD-L1 ECD protein were evaluated using SPR; purchased G&P Biosciences FCL0784B
T1 sequence (Q9NZQ7 19-238 limits assumed): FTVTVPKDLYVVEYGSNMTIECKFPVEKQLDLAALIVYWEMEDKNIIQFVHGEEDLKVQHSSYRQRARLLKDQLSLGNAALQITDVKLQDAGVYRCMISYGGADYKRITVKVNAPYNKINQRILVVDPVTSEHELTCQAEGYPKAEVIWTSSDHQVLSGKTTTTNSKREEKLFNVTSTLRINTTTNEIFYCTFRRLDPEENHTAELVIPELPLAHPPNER
Experimental: In such aspects, the equilibrium dissociate constant KD value against recombinant human PD-L1 can be determined according to an KD to PD-L1 SPR Assay. The KD to PD-L1 SPR Assay can include the use of Surface Plasmon Resonance (SPR), such as the B14500, Biosensing Instrument, and can include the following procedures. The PD-L1 protein can be diluted to 10 μg/mL with sodium acetate buffer (pH 5.0, GE Healthcare, PA) and covalently coated onto a CM5 sensor chip (CM Dextran Sensor Chip, Biosensing Instrument) using the standard Amine Coupling Kit (GE Healthcare, PA). Approximately 6500 RU of PD-L1 protein are immobilized onto the chip. A second channel is used as a reference. HBS-EP+ buffer (GE Healthcare) can be employed at a flow rate of 60 μL/min. A series of concentrations of each peptide (15, 30, 60, 125, 250, 500, 1000, 5000 and 10,000 nM) is prepared in HBS-EP+ running buffer to obtain the equilibrium dissociation constant (KD) values of the peptides. The CM5 sensor chip can be regenerated with 10 mM NaOH for 20 s. The results can be analyzed using the software of Bi data analysis software.
Evaluation of Binding Kinetics and Affinity By Surface Plasmon Resonance (SPR). Binding affinities of the PD-L1 specific peptides for human PD-L1 protein were determined by SPR (B14500, Biosensing Instrument). PD-L1 protein was diluted to 10 μg/mL with sodium acetate buffer (pH 5.0, GE Healthcare, PA) and covalently coated onto a CM5 sensor chip (CM Dextran Sensor Chip, Biosensing Instrument) using the standard Amine Coupling Kit (GE Healthcare, PA). Approximately 6500 RU of PD-L1 protein were immobilized onto the chip. A second channel was used as a reference. HBS-EP+ buffer (GE Healthcare) was employed at a flow rate of 60 μL/min. A series of concentrations of each peptide (15, 30, 60, 125, 250, 500, 1000, 5000 and 10,000 nM) were prepared in HBS-EP+ running buffer to obtain the equilibrium dissociation constant (KD) values of the peptides. The CM5 sensor chip was regenerated with 10 mM NaOH for 20 seconds. The results were analyzed using the software of Bi data analysis software. Binding affinities of the anti-PD-L1 peptides to BSA was also assessed following the procedure for human PD-L1.

hPD-L1 = hPD-L1 (Homo sapiens, UniProt Q9NZQ7); assay: Blockade of the PD-1/PD-L1 interaction, plate coated with human PD-L1 protein; format: binding; set-up: PD-L1 protein (G&P Biosciences, human PD-L1 ECD, cat #FCL0784B); purchased G&P Biosciences FCL0784B (PD-L1)
Sequence of hPD-L1 (Q9NZQ7 19-238 limits assumed): as above
Experimental: as §1

For `CC(C)C[C@H](NC(=O)[C@H](CC(N)=O)NC(=O)[C@H](Cc1c[nH]c2ccccc12)NC(=O)[C@@H](NC(=O)[C@H](Cc1ccc(O)cc1)NC(=O)[C@H](Cc1ccc(O)cc1)NC(=O)[C@H](CO)NC(=O)[C@H](CCCNC(=N)N)NC(=O)[C@H](Cc1c[nH]cn1)NC(=O)[C@@H](N)Cc1c[nH]c2ccccc12)[C@@H](C)O)C(=O)N[C@@H](CC(N)=O)C(=O)N[C@H](C(=O)O)[C@@H](C)O` [CLP002] (H-WHRSYYTWNLNT-OH; N-terminus and C-terminus assumed), the “IL-6 expression in tumor tissues” value [1] was “decreased expression of IL-6”, the “Effect on Jurkat T cell proliferation” value [2] was “restored Jurkat T cell proliferation” and the “Density of CD8+ T cells in tumor tissues” value [3] was “significantly increased”. For the same compound, the “Location of CD8+ T cells in the tumor” value [3] was “penetration of CD8^+ T cells into the tumor tissue”, the IC50 (DU145 cancer cell; 2 h) was 1.43 µM and the “Blocking Efficiency (%)” value (DU145 cancer cell; DU-145 cancer cells) was 80%. The kon [4] was 4520 M⁻¹ s⁻¹, the “Blocking Efficiency (%)” value (hPD-L1; human PD-L1 protein) was 85% and the “Blocking of the human PD-1/PD-L1 interaction (in words)” value (hPD-L1; peptides at 10 μM, FIG. 2c) was “highest blocking efficiency”. For the same compound, the IC50 (hPD-L1; plate coated with human PD-L1 protein) was 2.17 µM.
